Like-named read-outs stand apart in the source and are kept apart here.
Tests used:
[1] = system: zebrafish embryos and larvae; settings: for Maximum-tolerated concentration (MTC): highest concentration with no phenotypic abnormalities, followed to 9 dpf
Procedure: Zebrafish embryos of the AB wild-type strain (originally obtained from the Zebrafish International Resource Center, Eugene, Oregon, USA) were raised at 28°C. Zebrafish husbandry, embryo collection, and embryo and larva maintenance were performed as described, [21]. Toxicity assays were standardly performed in 24-well microtiter plates (wrapped with Parafilm to limit solvent evaporation) using 10 embryos per well in 1 ml of 0.3× Danieau's medium (17 mM NaCl, 2 mM KCl, 0.12 mM MgSO4, 1.8 mM Ca(NO3)2 and 1.5 mM HEPES, pH 7.6). Each experiment was repeated 3 times for a total of 30 embryos or larvae analyzed per solvent per developmental staged tested. Data were only recorded for experiments in which the percentage of normal embryos or larvae in the control group was at least 90%. […] In determining the maximum tolerated concentration (MTC) for each solvent and carrier, all post-exposure embryos and larvae were allowed to develop in larva medium to 9 dpf, so as to detect any deleterious effects appearing after this 24-hour window. Solvents and carriers were obtained from the following suppliers: acetone (Chemlab, Zedelgem, Belgium), acetonitrile (Acros Organics, Geel, Belgium), albumin (BSA, Sigma-Aldrich, Bornem, Belgium), butanone (Riedel-de Haën, Seelze, Germany), cyclodextrin (2- hydroxypropyl-beta-cyclodextrin, Sigma-Aldrich), dimethyl formamide (Acros), DMSO (Agros), ethanol (Fisher Scientific, Doornik, Belgium), glycerol (Acros), isopropanol (Chemlab), methanol (Chemlab), polyethylene glycol-400 (Fluka, Bornem, Belgium), propylene glycol (Certa, Eigenbrakel, Belgium), solketal (Merck, Overijse, Belgium). Statistical analyses were done using chi-square in Microsoft Excel.
Twelve solvents and 2 carriers – chosen based solely on their potential utility for the solubilization and delivery of a structurally diverse range of small molecules – were analyzed for their effects on zebrafish embryos and larvae. The solvents included acetone, acetonitrile, butanone, dimethyl formamide, DMSO, ethanol, glycerol, isopropanol, methanol, polyethylene glycol (PEG-400), propylene glycol, and solketal, and the carriers included albumin (BSA) and cyclodextrin (2-hydroxypropyl-beta-cyclodextrin, or HPBCD). […] For this initial study, the effects of a 24-hour exposure to each solvent and carrier was analyzed using embryos and larvae at the following developmental stages: 2–4 cell, 4 hours-post fertilization (hpf), and 1, 2, 3, 4, and 7 days post-fertilization (dpf).

zebrafish embryos = system: zebrafish embryos; parameters: method as in PMID 16125774; settings: 2% DMSO; cited from earlier work
zebrafish = system: zebrafish; parameters: method as in PMID 18646521; settings: 0.01% acetone; cited from earlier work
rat embryos = settings: cited from earlier work
early embryos = system: early embryos; parameters: method as in PMID 18031801; settings: solutions containing between 5 and 10% of this solvent; cited from earlier work
[2] = exposure for 24 hours beginning at 1 dpf
[3] = exposure for 24 hours beginning at 2 dpf
[4] = exposure for 24 hours beginning at 2–4 cell stage
[5] = exposure for 24 hours beginning at 3 dpf
[6] = exposure for 24 hours beginning at 4 dpf
[7] = exposure for 24 hours beginning at 4 hpf
[8] = exposure for 24 hours beginning at 5 dpf
[9] = exposure for 24 hours beginning at 7 dpf
[10] = exposure from 3 dpf, at the concentration in parentheses
[11] = exposure from 5 dpf, at the concentration in parentheses
[12] = exposure from 7 dpf, at the concentration in parentheses
[13] = exposure from 1 dpf, at the concentration in parentheses

Compound | Lowest concentration at which an average penetrance of at least 50% was observed for the phenotypic effects ([1]; 24 hours exposure from 3 dpf) [%] | Lowest concentration at which an average penetrance of at least 50% was observed for the phenotypic effects ([1]; 24 hours exposure from 5 dpf) [%] | Lowest concentration at which an average penetrance of at least 50% was observed for the phenotypic effects ([1]; 24 hours exposure from 7 dpf) [%] | Maximum-tolerated concentration (MTC) [1, 2] [%] | Maximum-tolerated concentration (MTC) [1, 3] [%] | Maximum-tolerated concentration (MTC) [1, 4] [%] | Maximum-tolerated concentration (MTC) [1, 5] [%] | Maximum-tolerated concentration (MTC) [1, 6] [%] | Maximum-tolerated concentration (MTC) [1, 7] [%] | Maximum-tolerated concentration (MTC) [1, 8] [%] | Maximum-tolerated concentration (MTC) [1, 9] [%] | Phenotypic effects above MTC after 24 hours (average penetrance at least 50%) [1, 10] | Phenotypic effects above MTC after 24 hours (average penetrance at least 50%) [1, 11] | Phenotypic effects above MTC after 24 hours (average penetrance at least 50%) [1, 12] | Lowest concentration at which an average penetrance of at least 50% was observed for the phenotypic effects ([1]; 24 hours exposure from 1 dpf) [%] | Lowest concentration at which an average penetrance of at least 50% was observed for the phenotypic effects ([1]; 24 hours exposure from 2 dpf) [%] | Lowest concentration at which an average penetrance of at least 50% was observed for the phenotypic effects ([1]; 24 hours exposure from 4 hpf) [%] | Phenotypic effects above MTC after 24 hours (average penetrance at least 50%) [1, 13] | other results
C[S+](C)[O-] [Dimethyl sulfoxide (DMSO), Dimethyl sulfoxide] | 2.5 | 2.5 | 2 | 2 | 2 | >2.5 | 1.5 | 2 | >2.5 | 2 | 1.5 | NB SB | GG IC IM LP | NB LP | – | – | – | – | MTC / tolerated concentration as summarised in the text for a subset of stages ([1]; BSA: intermediate stages, DMSO: embryos, glycerol: younger larvae and embryos): at least 2.5%; Levels at which abnormalities or lethality begin in at least a subset of treated animals ([1]; larvae): 2–2.5%; Adverse effects at maximum concentration tested (zebrafish embryos): no adverse effects
CC(C)=O [Acetone, acetone] | – | – | 0.5 | 1.5 | 1.5 | 2 | ≥2.5 | 1.5 | 2 | <0.5 | <0.5 | – | – | – | – | – | – | – | Maximum-tolerated concentration (MTC) ([1]; exposure for 24 hours beginning at 3 dpf, listed as acetone): ≥ 2.5%; Toxicity of negative controls with solvent (zebrafish): no signs of toxicity
CC#N [Acetonitrile, acetonitrile] | 1.5 | 1 | 0.5 | 1 | – | <0.5 | 1 | – | – | – | – | PE SB | IC PE | IC PE | 2.5 | 1.5 | 1.5 | DD PE | Minimum embryotoxic concentration (rat embryos): 40 mM; Effect on cleavage-stage embryos ([1]; 0.5% (lowest concentration examined), after 24 hours of exposure): completely lethal; Lowest concentration at which an average penetrance of at least 50% was observed for the phenotypic effects ([1]; 24 hours exposure from 4 dpf): 1.5%; Phenotypic effects above MTC after 24 hours (average penetrance at least 50%) ([1]; exposure from 4 dpf, at the concentration in parentheses): IC PE; Phenotypic effects above MTC after 24 hours (average penetrance at least 50%) ([1]; exposure from 4 hpf, at the concentration in parentheses): AP IC IP NO SO
CC(O)CO (centres unmarked) [Propylene glycol] | – | – | – | >2.5 | >2.5 | >2.5 | 2 | 1.5 | >2.5 | >2.5 | 1.5 | – | – | – | – | – | – | – | Toxicity of brief exposures to cryoprotectant solutions (early embryos): toxic; MTC / tolerated concentration ([1]; over all or most developmental stages analyzed, 24-hour exposure): at least 2.5%
CC(C)O [Isopropanol, isopropanol] | 2 | – | 1 | 0.5 | 1 | 0.5 | 1.5 | 0.5 | 1 | <0.5 | 0.5 | BC IC IM HJ PE | – | IC LP NB PE | 1 | 2 | 1.5 | AP IC | Phenotypic effects above MTC after 24 hours (average penetrance at least 50%) ([1]; exposure from 2 dpf, at the concentration in parentheses): IC LP
CO [Methanol, methanol] | 2.5 | – | 2.5 | 1.5 | >2.5 | 1.5 | 2 | 1 | 1.5 | >2.5 | 2 | – | – | – | – | – | 2 | – | Lowest concentration at which an average penetrance of at least 50% was observed for the phenotypic effects ([1]; 24 hours exposure from 2–4 cell stage): 2%; Phenotypic effects above MTC after 24 hours (average penetrance at least 50%) ([1]; in vivo): NB LP

— paper PMC3474771, “Evaluation of 14 Organic Solvents and Carriers for Screening Applications in Zebrafish Embryos and Larvae” (PLoS ONE, 2012)
